Data on 14 compounds can be found in PMC8008425, “Shedding X-ray Light on the Role of Magnesium in the Activity of Mycobacterium tuberculosis Salicylate Synthase (MbtI) for Drug Design” (Journal of Medicinal Chemistry, 2020).

In series [1] the target is T1, recombinant MbtI (Mycobacterium tuberculosis, UniProt P9WFX1). As to the kind of experiment: MbtI enzymatic (fluorimetric) inhibition assay. The class given is biochemical. The following applies: for remaining activity at 100 µM: residual enzymatic activity at 100 μM ligand concentration, 50 μM chorismic acid.
T1 sequence (P9WFX1 whole entry): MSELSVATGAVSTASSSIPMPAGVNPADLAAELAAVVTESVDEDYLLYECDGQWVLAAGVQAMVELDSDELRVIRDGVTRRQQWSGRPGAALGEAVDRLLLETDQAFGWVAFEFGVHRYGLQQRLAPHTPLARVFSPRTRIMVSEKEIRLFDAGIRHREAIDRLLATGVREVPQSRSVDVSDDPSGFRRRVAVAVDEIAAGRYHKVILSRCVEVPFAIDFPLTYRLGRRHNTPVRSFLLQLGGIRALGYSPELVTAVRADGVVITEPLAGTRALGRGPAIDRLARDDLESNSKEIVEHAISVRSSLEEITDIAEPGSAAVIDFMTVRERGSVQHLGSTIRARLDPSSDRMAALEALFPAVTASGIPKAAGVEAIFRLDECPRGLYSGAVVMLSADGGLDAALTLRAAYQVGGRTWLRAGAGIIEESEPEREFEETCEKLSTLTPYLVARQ
Series [2] concerns the target T1, recombinant MbtI. Particulars: cited from earlier work.
Series [3] relates to M. tuberculosis H37Rv. Nature of the series: MIC99 determination on Middlebrook 7H11 agar solid medium. The class given is cell-based. Particulars: Mycobacterium tuberculosis.
Series [4] concerns M. bovis BCG. Nature of the series: microbe, parasite or virus in culture. It counts as cell-based. The following applies: Mycobacterium tuberculosis variant bovis BCG.
The subject of series [5] is M. bovis BCG. It counts as cell-based, Mycobacterium bovis. The following applies: M. bovis BCG cultures grown at different concentrations of compound, chelated Sauton's medium.
Another series in a line: in vitro. Particulars: human.
In series [6] the test system is M. tuberculosis H37Rv. Details: method as in PMID 29940465, PMID 30889995. The following applies: Mtb cultures; cited from earlier work.
Where [7] appears, read: standard assay, 5 mM MgCl2, read-out: IC50.

Converted amounts (≈) assume the structure as drawn. “And” between values parts separate entries of the source, which are not always exact repeats. Equal entries are not always repeated. Where two headings read alike, the source gives them in different places.

For the compound `CNC(=O)c1cccc(-c2ccc(C(=O)O)o2)c1` [Compound 7, 5-(3-(Methylcarbamoyl)phenyl)furan-2-carboxylic Acid], the melting point – broadly, the temperature of the solid-liquid transition – is 159 °C. Also, at recombinant MbtI [1] (5 mM MgCl2), the remaining activity (in general, the signal under treatment as a percentage of the control signal) at 100 µM stood at 84 ± 9.1%.

`Cc1cccc(-c2ccc(C(=O)O)o2)c1` [Compound 4, 5-(m-Tolyl)furan-2-carboxylic Acid]: the melting point was determined as 147 °C. Besides, the remaining activity at 100 µM on recombinant MbtI [1] (5 mM MgCl2) came to 104 ± 4.8%.

In turn, `O=C(O)c1ccc(-c2cccc(O)c2)o1` [Compound 3, 5-(3-Hydroxyphenyl)furan-2-carboxylic Acid] came in with a melting point of 170 °C. Further, on recombinant MbtI [1] (5 mM MgCl2), the remaining activity at 100 µM was determined as 70.4 ± 21.8%.

Regarding `NC(=O)c1cccc(-c2ccc(C(=O)O)o2)c1` [Compound 6, 5-(3-Carbamoylphenyl)furan-2-carboxylic Acid], at recombinant MbtI [1] (5 mM MgCl2), the remaining activity at 100 µM amounted to 20.9 ± 4.3%. The IC50 – broadly, the concentration at which inhibition is half-maximal – at recombinant MbtI [1] (setting [7]) was 31 µM and 31.4 µM.

For the compound `O=C(O)c1cccc(-c2ccc(C(=O)O)o2)c1` [Compound 9, 5-(3-Carboxyphenyl)furan-2-carboxylic Acid], the remaining activity at 100 µM on recombinant MbtI [1] (5 mM MgCl2) worked out at 27.2 ± 4.5%.

In the case of `Nc1cccc(-c2ccc(C(=O)O)o2)c1` [Compound 5, 5-(3-Aminophenyl)furan-2-carboxylic Acid], the melting point was 225 °C (dec.). Besides, the remaining activity at 100 µM at recombinant MbtI [1] (5 mM MgCl2) was found to be 65.8 ± 9.6%.

Consider `O=C(O)c1ccc(-c2cccc([N+](=O)[O-])c2)o1` [NO2, 5-(3-nitrophenyl)furan-2-carboxylic acid], for which the inhibitory activity at recombinant MbtI [2] (at a concentration of 100 μM) was roughly 50%.

Regarding `N#Cc1cccc(-c2ccc(C(=O)O)o2)c1` [Compound 10, 5-(3-Cyanophenyl)furan-2-carboxylic Acid], the IC50 was determined as 6.1 ± 0.9 µM on recombinant MbtI [1] (0.1 mg/mL BSA, PAINS control, read-out: IC50 in the presence of BSA); 9.8 ± 1.3 µM at recombinant MbtI [1] (1 mM MgCl2, Figure 5B, x-axis [10] (μM), read-out: IC50 at 1 mM MgCl2); 11.4 ± 2 µM on recombinant MbtI [1] (5 mM MgCl2, Figure 5B, x-axis [10] (μM), read-out: IC50 at 5 mM MgCl2); 5.8 ± 1.2 µM on recombinant MbtI [1] (0.01% (v/v) Triton X-100, PAINS control, read-out: IC50 in the presence of Triton X-100); 14.2 ± 1.1 µM at recombinant MbtI [1] (25 mM MgCl2, Figure 5B, x-axis [10] (μM), read-out: IC50 at 25 mM MgCl2); 7.2 ± 1.1 µM at recombinant MbtI [1] (100 mM DTT, PAINS control, read-out: IC50 in the presence of DTT). Moreover, the IC50 on recombinant MbtI [1] (IC50, standard assay, 5 mM MgCl2) is 6.3 ± 0.9 µM; at recombinant MbtI [1] (setting [7]) it was roughly 6 µM; in the series “in vitro”, greater than 100 µM. Further, the remaining activity at 100 µM at recombinant MbtI [1] (5 mM MgCl2) worked out at 3.1 ± 1%. The “mode of inhibition (kinetic analysis)” value on recombinant MbtI [1] (steady-state kinetics toward chorismic acid) is “competitive inhibitor”. For the same compound, the Ki (commonly the equilibrium dissociation constant of an inhibitor or competing ligand from its target) on recombinant MbtI [1] (steady-state kinetics toward chorismic acid, competitive inhibition) was 4.2 µM and 4 µM. The MIC99 in the series with M. tuberculosis H37Rv [3] and in the series with M. bovis BCG [4] was 250 µM (≈ 53.3 µg/mL) each time. The “siderophore concentration (Universal CAS assay and quantification of mycobactins)” value in the series with M. bovis BCG [5] is listed as “siderophore concentration decreased at higher concentrations of the compound”.

For `O=C(O)c1ccc(-c2cccc(C(F)(F)F)c2)o1` [Compound 1], the remaining activity at 100 µM on recombinant MbtI [1] (5 mM MgCl2) was 42 ± 6.3%.

Consider `NS(=O)(=O)c1cccc(-c2ccc(C(=O)O)o2)c1` [Compound 8, 5-(3-Sulfamoylphenyl)furan-2-carboxylic Acid], for which the remaining activity at 100 µM on recombinant MbtI [1] (5 mM MgCl2) amounted to 28.6 ± 6.8%.

Take `O=C(O)c1ccc(-c2ccc([N+](=O)[O-])cc2)o1` [I]: the IC50 at recombinant MbtI [2] (previous leads) was 7.6 ± 1.6 µM. Further, the MIC99 with M. tuberculosis H37Rv [6] is 156 µM (≈ 36.4 µg/mL).

For `O=C(O)c1ccc(-c2ccc(C(F)(F)F)cc2C(F)(F)F)o1` [II], the MIC99 with M. tuberculosis H37Rv [6] was 250 µM (≈ 81 µg/mL).

On to `O=C(O)c1ccc(-c2cccc(Cl)c2)o1` [Compound 2, 5-(3-Chlorophenyl)furan-2-carboxylic Acid], for which the melting point was 187 °C (dec.). Moreover, the remaining activity at 100 µM at recombinant MbtI [1] (5 mM MgCl2) worked out at 102 ± 17.8%.

In the case of `N#Cc1cccc(-c2ccc(C(N)=O)o2)c1` [Compound 11, 5-(3-Cyanophenyl)furan-2-carboxamide], the melting point turned out to be 202 °C. The IC50 at recombinant MbtI [1] (setting [7]) worked out at 17.3 ± 1.9 µM.
